What was measured:
CYP2A6 = target: T1, CYP2A6 (Homo sapiens, UniProt P11509); assay: CYP2A6 coumarin 7-hydroxylation inhibition, cocktail assay in pooled human liver microsomes; assay type: in vitro ADME; settings: 2.5 μM coumarin, no inhibition at 200 μM of corydaline; for IC50 no preincubation, CYP2A6 coumarin 7-hydroxylation: pooled human liver microsomes (H161)
T1 construct: using pooled human liver microsomes; tissue BD Gentest Co. H161; host or cells: pooled human liver microsomes
T1 sequence (P11509 1-494): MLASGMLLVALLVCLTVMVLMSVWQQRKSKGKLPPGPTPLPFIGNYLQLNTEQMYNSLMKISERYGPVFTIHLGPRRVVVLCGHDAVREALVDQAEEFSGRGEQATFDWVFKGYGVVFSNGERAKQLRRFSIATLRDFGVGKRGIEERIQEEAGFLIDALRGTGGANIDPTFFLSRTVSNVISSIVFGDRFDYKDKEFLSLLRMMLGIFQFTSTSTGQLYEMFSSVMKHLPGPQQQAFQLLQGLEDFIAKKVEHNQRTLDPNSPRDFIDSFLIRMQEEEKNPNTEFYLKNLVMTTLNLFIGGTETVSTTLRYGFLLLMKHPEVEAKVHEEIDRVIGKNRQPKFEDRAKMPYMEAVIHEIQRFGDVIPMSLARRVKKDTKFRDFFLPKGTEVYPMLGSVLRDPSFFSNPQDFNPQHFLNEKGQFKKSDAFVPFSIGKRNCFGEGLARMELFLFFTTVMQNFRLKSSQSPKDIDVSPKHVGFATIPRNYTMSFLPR
Experimental: (§1) Phenacetin O-deethylase, coumarin 7-hydroxylase, amodiaquine N-deethylase, diclofenac 4-hydroxylase, S-mephenytoin 4-hydroxylase, bufuralol hydroxylase, and midazolam 1’-hydroxylase activities were determined as probe activities for CYP1A2, CYP2A6, CYP2C8, CYP2C9, CYP2C19, CYP2D6, and CYP3A4, respectively, using cocktail incubation and liquid chromatography-tandem mass spectrometry (LC/MS/MS). The incubation mixtures were prepared in a total volume of 200 μL, as follows: pooled human liver microsomes (0.25 mg/mL), 1.3 mM NADPH, 3.3 mM MgCl2, 50 mM potassium phosphate buffer (pH 7.4), and a cocktail of probe substrates and various concentrations of corydaline (1−200 μM). The substrates were used at concentrations approximately equal to their respective Km values: 50 μM phenacetin, 2.5 μM coumarin, 2.5 μM amodiaquine, 10 μM diclofenac, 100 μM S-mephenytoin, 5 μM bufuralol, and 2.5 μM midazolam. After a 3-min pre-incubation period at 37 °C, the reactions were initiated by addition of an NADP generating system and incubated for 20 min at 37 °C in a shaking water bath. After incubation, the reaction was stopped by placement of the tubes on ice and addition of 100 μL of ice-cold methanol containing internal standards (^13C2,^15N-acetaminophen for acetaminophen and N-desethylamodiaquine, d5-7-hydroxycoumarin for 7-hydroxycoumarin, ^13C6-4-hydroxydiclofenac for 4-hydroxydiclofenac, d3-4-hydroxy-mephenytoin for 4-hydroxymephenytoin and hydroxymidazolam, d9-1-hydroxybufuralol for 1-hydroxybufuralol). The incubation mixtures were then centrifuged at 13,000 × g for 5 min. All incubations were performed in triplicate and the mean values were used. […] The reaction was started by addition of a cocktail of CYP probe substrates.
(§2) All 7 metabolites produced from the cocktail of CYP isoform-specific substrates were simultaneously determined by LC/MS/MS [25]. […] Quantification was performed by selected reaction monitoring (SRM) of the [M+H]^+ ion and the related product ion for each metabolite. […]

CYP1A2 = target: T2, CYP1A2 (Homo sapiens, UniProt P05177); assay: CYP1A2 phenacetin O-deethylation inhibition, cocktail assay in pooled human liver microsomes; assay type: in vitro ADME; settings: 50 μM phenacetin, no inhibition at 200 μM of corydaline; for IC50 no preincubation, CYP1A2 phenacetin O-deethylation: pooled human liver microsomes (H161)
T2 construct: using pooled human liver microsomes; tissue BD Gentest Co. H161; host or cells: pooled human liver microsomes
T2 sequence (P05177 1-516): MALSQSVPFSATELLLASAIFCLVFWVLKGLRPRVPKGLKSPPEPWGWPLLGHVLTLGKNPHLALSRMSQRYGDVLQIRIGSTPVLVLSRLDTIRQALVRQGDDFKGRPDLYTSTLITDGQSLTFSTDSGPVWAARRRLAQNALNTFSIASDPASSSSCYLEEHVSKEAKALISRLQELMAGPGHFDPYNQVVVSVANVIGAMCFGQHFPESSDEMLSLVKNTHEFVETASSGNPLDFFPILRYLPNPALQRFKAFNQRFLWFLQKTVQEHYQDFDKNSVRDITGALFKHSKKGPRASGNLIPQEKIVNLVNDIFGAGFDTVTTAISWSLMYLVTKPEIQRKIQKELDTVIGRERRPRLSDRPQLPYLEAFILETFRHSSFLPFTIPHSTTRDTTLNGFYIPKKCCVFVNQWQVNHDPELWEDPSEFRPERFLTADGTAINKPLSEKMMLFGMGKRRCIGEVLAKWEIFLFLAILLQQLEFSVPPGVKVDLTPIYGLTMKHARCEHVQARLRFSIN
Experimental: as §1, §2

[1] = pre-incubated 30 min with NADPH

Compound: COc1cc2c(cc1OC)C1C(C)c3ccc(OC)c(OC)c3CN1CC2 (stereo not drawn) [Corydaline, 2,3,9,10-tetramethoxy-13-methyl-5,8,13,13a-tetrahydro-6H-isoquino[3,2-a]isoquinoline]
- IC50 no preincubation, CYP2A6 coumarin 7-hydroxylation (CYP2A6): negligible inhibition
- IC50 no preincubation, CYP2A6 coumarin 7-hydroxylation (CYP2A6; listed as corydaline): No inhibition **
- IC50 with preincubation, CYP2A6 coumarin 7-hydroxylation (CYP2A6; [1]): No inhibition **
- IC50 no preincubation, CYP1A2 phenacetin O-deethylation (CYP1A2): negligible inhibition
- IC50 no preincubation, CYP1A2 phenacetin O-deethylation (CYP1A2; listed as corydaline): No inhibition **
- IC50 with preincubation, CYP1A2 phenacetin O-deethylation (CYP1A2; [1]): No inhibition **

From paper PMC6264278, “Corydaline Inhibits Multiple Cytochrome P450 and UDP-Glucuronosyltransferase Enzyme Activities in Human Liver Microsomes” (Molecules, 2011)
